In brackets after ≈: the same amount, converted by molar mass. Residues, ends and D or L forms follow the SMILES beside them.
Experiments:
Test in all cases: microbe, parasite or virus in culture
Format in all cases: cell-based
[1] = test system: Staphylococcus aureus (ATCC 700698 MRSA); details: ATCC 700698; read-out: Minimum inhibitory concentration (MIC)
Summary of the method: (§1)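 Compounds are diluted two-fold serially and tested against each bacterial strain to find the minimum inhibitory concentration. The assay is repeated thrice, and the reported MIC is the average.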

[2] = test system: Staphylococcus aureus (ATCC 29213); details: ATCC 29213; read-out: Minimum inhibitory concentration (MIC)
Summary of the method: as §1

[3] = test system: Escherichia coli (ATCC 9637); details: ATCC 9637; read-out: Minimum inhibitory concentration (MIC)
Summary of the method: as §1

[4] = test system: Escherichia coli (ATCC 25922); details: ATCC 25922; read-out: Minimum inhibitory concentration (MIC)
Summary of the method: as §1

[5] = test system: Staphylococcus aureus (ATCC 33592) Methicillin resistant Genatmicin resistant; details: ATCC 33592; read-out: Minimum inhibitory concentration (MIC)
Summary of the method: as §1

[6] = test system: Bacillus subtilis (ATCC 6633); details: ATCC 6633; read-out: Minimum inhibitory concentration (MIC)
Summary of the method: as §1

[7] = test system: Staphylococcus aureus (ATCC 700699 MRSA); details: ATCC 700699; read-out: Minimum inhibitory concentration (MIC)
Summary of the method: as §1

[8] = test system: Staphylococcus aureus (ATCC 25923); details: ATCC 25923; read-out: Minimum inhibitory concentration (MIC)
Summary of the method: as §1

[9] = test system: Pseudomonas aeruginosa (ATCC BAA-427); details: ATCC BAA-427; read-out: Minimum inhibitory concentration (MIC)
Summary of the method: as §1

Compound: CC[C@H](C)[C@H](NC(=O)[C@H](C)NC(=O)[C@H](CCCCN)NC(=O)[C@@H]1CCCN1C(=O)[C@H](C)NC(=O)[C@H](Cc1c[nH]cn1)NC(=O)[C@@H](NC(=O)[C@H](C)NC(=O)CNC(=O)[C@H](CCCCN)NC(=O)[C@@H](NC(=O)[C@H](CC(C)C)NC(=O)[C@H](Cc1c[nH]c2ccccc12)NC(=O)CNC(=O)[C@H](Cc1ccccc1)NC(=O)[C@@H](N)Cc1ccccc1)[C@@H](C)CC)[C@@H](C)CC)C(=O)N[C@@H](Cc1c[nH]cn1)C(=O)NCC(=O)N[C@@H](CC(C)C)C(=O)N[C@H](C(=O)N[C@@H](Cc1c[nH]cn1)C(=O)N[C@@H](CCCNC(=N)N)C(=O)N[C@@H](CCCNC(=N)N)C(=O)N[C@@H](CCCNC(=N)N)C(=O)N[C@@H](Cc1c[nH]cn1)C(N)=O)[C@@H](C)CC [Peptide G13P-Chr-1] (H-FFGWLIKGAIHAPKAIHGLIHRRRH-NH2)
- MIC [1]: 3 µM (≈ 8.79 µg/mL)
- MIC [2]: 1.6 µM (≈ 4.69 µg/mL)
- MIC [3]: 3 µM (≈ 8.79 µg/mL)
- MIC [4]: 5 µM (≈ 14.7 µg/mL)
- MIC [5]: 1.6 µM (≈ 4.69 µg/mL)
- MIC [6]: 3 µM (≈ 8.79 µg/mL)
- MIC [7]: 1.6 µM (≈ 4.69 µg/mL)
- MIC [8]: 3 µM (≈ 8.79 µg/mL)
- MIC [9]: 6.8 µM (≈ 19.9 µg/mL)
